Test results: patent US7482459B2, “[4-(5-aminomethyl-2-fluoro-phenyl)-piperidin-1-yl]-(4-bromo-3-methyl-5-propoxy-thiophen-2-yl)-methanone hydrochloride as an inhibitor of mast cell tryptase” (Aventis Pharmaceuticals Inc., priority 2004, dated 2009)
Structures can show the parent of a compound that is named as a salt.

Legend:
[1] = target: T1, recombinant human β tryptase (Homo sapiens, UniProt Q15661); experiment: β-Tryptase inhibitory potency, chromogenic enzyme assay (S2366 substrate); format: biochemical
T1 construct: host or cells: yeast cells
T1 sequence (Q15661 31-275): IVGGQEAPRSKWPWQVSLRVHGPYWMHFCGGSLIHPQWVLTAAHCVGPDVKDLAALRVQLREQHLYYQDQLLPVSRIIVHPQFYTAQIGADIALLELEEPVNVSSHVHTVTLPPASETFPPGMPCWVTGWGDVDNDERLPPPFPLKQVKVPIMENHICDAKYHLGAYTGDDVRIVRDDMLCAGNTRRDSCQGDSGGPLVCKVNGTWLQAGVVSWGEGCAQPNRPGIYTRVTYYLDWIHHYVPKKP
Procedure: Tryptase inhibition activity is confirmed using either isolated human lung tryptase or recombinant human β tryptase expressed in yeast cells. Essentially equivalent results are obtained using isolated native enzyme or the expressed enzyme. The assay procedure employs a 96 well microplate (Costar 3590) using L-pyroglutamyl-L-prolyl-L-arginine-para-nitroanilide (S2366: Quadratech) as substrate (essentially as described by McEuen et. al. Biochem Pharm, 1996, 52, pages 331-340). Assays are performed at room temperature using 0.5mM substrate (2×Km) and the microplate is read on a microplate reader (Beckman Biomek Plate reader) at 405 nm wavelength.
Materials and Methods for Tryptase Primary Screen (Chromogenic assay)
• S2366 (Stock solutions of 2.5 mM).
• Purified recombinant beta Tryptase Stocks of 310 μg/mL. Protocol (Single Point Determination) • Add 60 μL of diluted substrate (final concentration of 500 μM in assay buffer) to each well • Add compound in duplicates, final concentration of 20 μM, volume 20 μL • Add enzyme at a final concentration of 50 ng/mL in a volume of 20 μL • Total volume for each well is 100 μL • Agitate briefly to mix and incubate at room temp in the dark for 30 minutes • Read absorbencies at […]

[2] = test system: Airway Hyperresponsiveness (AHR) to histamine in sensitized guinea pigs; experiment: Guinea pig model of airway hyperreactivity (AHR to histamine after ovalbumin sensitization and challenge); format: in vivo
Procedure: Sensitization and drug treatment: Male Hartley guinea pigs (225-250 g) are sensitized with ovalbumin (0.5 mL of 1% solution, i.p. and s.c.). On day 4, animals received a booster injection (i.p.) of 0.5 mL of 1% ovalbumin. On day 21, animals are orally dosed (2mL/kg) with either vehicle (0.5% methylcellulose/0.2% Tween 80) or test compound 2 hours prior to antigen challenge. Thirty minutes before antigen challenge the animals are also injected with mepyramine (30 mg/kg, i.p.) to prevent anaphylactic collapse. Animals are then exposed for 5 minutes to an aerosol of either saline (control animals) or 1% ovalbumin using a deVilbiss Ultraneb nebulizer.
AHR measurement: Eighteen to twenty four hours after challenge, animals are anesthetized with a combination of ketamine (133 mg/kg) and xylazine (24 mg/kg) given intramuscularly, surgically prepared and then mounted in a whole body plethysmograph for lung function measurement. Animals are connected to Ugo-Basile ventilators delivering a tidal volume of 1 mL/100 g at a rate of 50 breaths/minute via a tracheal cannula. The jugular vein is also cannulated for histamine challenge. A water filled esophageal cannula is placed such that transpulmonary pressure is recordable. Transpulmonary pressure is measured as the difference between the tracheal and esophageal cannulas using a differential pressure transducer. The volume, airflow, and transpulmonary pressure signals are monitored using a pulmonary analysis system (Buxco XA software) and used to calculate pulmonary resistance (cm H2O/mL/s) and dynamic compliance (mL/cm H2O). Airway resistance and dynamic compliance are computed on a breath by breath basis. Histamine is administered intravenously and reactivity to increasing concentrations (0.3-20 μg/kg) assessed. ED50's are estimated from the area under the curve (AUC) values derived from the individual histamine dose-response curves.

[3] = Plasma, lung and BAL drug levels in guinea pigs; format: in vivo, guinea pig
Procedure: Plasma and Lung Drug Levels Plasma and lung compound levels are determined in satellite groups. Three to four guinea pigs from each of the experimental-drug treatment groups are used for the determination of drug levels. At the indicated time point, (either 2- or 24 hours after dosing), animals are euthanized, and 1 mL blood samples are obtained by cardiac puncture and collected into heparin-coated syringes containing 20 μL (per 1 mL of blood) of a 5 mM hydralazine solution. Plasma is separated from the cellular component of the blood by centrifugation, and stored at −20° C. until assayed. Lung samples are dissected free of connective tissues, blotted dry, weighed and stored in 20 mL vials containing 5 mL of a 5 mM hydralazine solution in saline. The frozen plasma samples are then transferred on dry ice to the Pilot PK group for compound levels determination.

[4] = oral route, sensitized guinea pigs
[5] = 2 hours after dosing, 1 mg/kg, p.o.

CCCOc1sc(C(=O)N2CCC(c3cc(CN)ccc3F)CC2)c(C)c1Br [Compound I, [4-(5-aminomethyl-2-fluoro-phenyl)-piperidin-1-yl]-(4-bromo-3-methyl-5-propoxy-thiophen-2-yl)-methanone hydrochloride]
IC50 ([1]; 0.5 mM substrate S2366 (2×Km), room temperature): 76 nM
Ki ([1]; calculated from IC50: Ki=IC50/(1+[Substrate]/Km)): 15 nM
ED50 ([2]; Cavia porcellus, dosed 24 hours prior to antigen challenge, read-out: average ED50, duration of action): 0.4 mg/kg
ED50, protection against antigen-stimulated AHR to histamine, as measured by airway resistance and dynamic lung compliance ([2]; oral dosing 2 hours prior to ovalbumin challenge): 0.1 mg/kg
effect on basal airway resistance [2, 4]: no effect
effect on basal dynamic lung compliance [2, 4]: no effect
compound level in lung [3, 5]: appreciable amount
compound level in plasma [3, 5]: detected at a much lower level
compound level in bronchoalveolar lavage fluid (BAL) ([3]; 2 hours after dosing, 1 mg/kg, p.o., not taking into account dilution factor for BAL): appreciable amount
compound level in lung ([3]; 24 hours after dosing): dose-dependent appreciable amount
compound level in plasma ([3]; 24 hours after dosing): no plasma could be detected
